Earlier results as cited in US20040143855A1, “Ion channels as targets for sleep-related drugs” (priority 2002, published 2004).

What was measured:
Drosophila = settings: flies given the drug
TREK-1 = target: T1, TREK-1 (Homo sapiens, UniProt O95069); settings: volatile general anesthetics
T1 sequence (O95069 1-426): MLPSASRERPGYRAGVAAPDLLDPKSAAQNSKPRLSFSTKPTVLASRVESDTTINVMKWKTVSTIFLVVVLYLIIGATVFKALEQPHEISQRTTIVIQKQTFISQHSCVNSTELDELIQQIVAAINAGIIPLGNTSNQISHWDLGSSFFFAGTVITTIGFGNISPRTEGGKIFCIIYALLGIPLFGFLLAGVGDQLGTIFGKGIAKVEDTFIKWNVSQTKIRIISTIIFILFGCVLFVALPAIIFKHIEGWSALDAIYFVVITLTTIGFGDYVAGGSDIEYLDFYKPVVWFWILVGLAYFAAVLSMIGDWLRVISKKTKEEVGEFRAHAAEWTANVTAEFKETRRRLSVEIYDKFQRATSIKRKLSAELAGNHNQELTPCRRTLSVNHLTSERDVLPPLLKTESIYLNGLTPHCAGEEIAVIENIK

Row | SMILES | sleep (amount) (Drosophila) | sleep latency (Drosophila) | effect on TREK-1 channel (TREK-1)
1 | OCCOCCN1CCN(C(c2ccccc2)c2ccc(Cl)cc2)CC1 (stereo not shown) [hydroxyzine] | increased sleep | reduced its latency | –
2 | FC(F)OC(Cl)C(F)(F)F (stereo not shown) [isoflurane] | – | – | activated
3 | CCOCC [diethylether] | – | – | activated
4 | Cn1c(=O)c2c(ncn2C)n(C)c1=O [caffeine] | dose-dependent decrease in sleep | – | –
5 | FC(F)(F)C(Cl)Br (stereo not shown) [halothane] | – | – | activated
6 | ClC(Cl)Cl [chloroform] | – | – | activated
